Patent publication US4461907A, “Amino-substituted flavans useful as anti-viral agents” (priority 1978, dated 1984)
Read-outs that look alike come from different tables or passages of the source.

Experiments:
rhinovirus serotype 1B = assay: plaque reduction test; type: cell-based; settings: Enterovirus
Source text: Plaque suppression is proportional to compound concentration.

rhinoviruses [1] = assay: activity in tests (novel compounds)
in vivo = settings: mouse, po
viral hepatitis = settings: Lancet;2;1153 (1977); cited from earlier work
rhinoviruses [2] = assay: in vitro tests in culture
[3] = rhinovirus serotype 1B, plaque reduction test, read-out: ED50 (the source's name)

Row | Compound | EC50 (rhinovirus serotype 1B; [3]) [nM] | other results
1 | Clc1ccc(C2CCc3ccccc3O2)c(Cl)c1 (stereo not drawn) [2',4'-dichloro-, 2',4'-Dichloro-flavan] | 64 | 
2 | Clc1cccc(Cl)c1C1CCc2ccccc2O1 (stereo not drawn) [2',6'-dichloro-, 2',6'-Dichloroflavan] | 48 | 
3 | Clc1ccccc1C1CCc2ccccc2O1 (stereo not drawn) [2'-chloro-, 2'-chloroflavan] | 112 | 
4 | Oc1ccccc1C1CCc2ccccc2O1 (stereo not drawn) [2'-hydroxyl-, 2'-hydroxyflavan] | 780 | 
5 | Cc1ccccc1C1CCc2ccccc2O1 (stereo not drawn) [2'-methyl-, 2'-Methylflavan] | 15 | 
6 | Cc1ccc2c(c1)CCC(c1ccc(Cl)c(Cl)c1)O2 (stereo not drawn) [3',4'-dichloro-6-methyl-, 3',4'-Dichloro-6-methylflavan] | 17 | activity in tests (rhinoviruses [1]): highest activity in tests
7 | Clc1ccc(C2CCc3ccccc3O2)cc1Cl (stereo not drawn) [3',4'-dichloro-, 3',4'-Dichloro-flavan] | 40 | 
8 | Clc1cccc(C2CCc3ccccc3O2)c1 (stereo not drawn) [3'-chloro-, 3'-chloroflavan] | 270 | 
9 | COc1cccc(C2CCc3ccccc3O2)c1 (stereo not drawn) [3'-methoxyl-, 3'-methoxyflavan] | 125 | 
10 | Cc1cccc(C2CCc3ccccc3O2)c1 (stereo not drawn) [3'-methyl-, 3'-methylflavan] | 290 | 
11 | FC(F)(F)c1cccc(C2CCc3ccccc3O2)c1 (stereo not drawn) [3'-trifluoromethyl, 3'-trifluoromethyl-flavan] | 1400 | 
12 | N#Cc1ccc(C2CCc3cc(C#N)ccc3O2)cc1 (stereo not drawn) [4',6-cyano, 4',6-dicyanoflavan] | > 10 | activity in tests (rhinoviruses [1]): highest activity in tests
13 | Brc1ccc(C2CCc3cc(Br)ccc3O2)cc1 (stereo not drawn) [4',6-dibromo-, 4',6-dibromoflavan] | 8 | activity in tests (rhinoviruses [1]): highest activity in tests
14 | Clc1ccc(C2CCc3cc(Cl)ccc3O2)cc1 (stereo not drawn) [4',6-dichloro-, 4',6-Dichloroflavan] |  | concentration at 1 h (in vivo; 30 mg/kg): 2 to 4 µM; concentration at 1 h (in vivo; 100 mg/kg): 10 µM
15 | Fc1ccc(C2CCc3cc(F)ccc3O2)cc1 (stereo not drawn) [4',6-difluoro-, 4'-6-difluoro] | 68 | 
16 | Ic1ccc(C2CCc3cc(I)ccc3O2)cc1 (stereo not drawn) [4',6-diiodo-, 4',6-diiodo] | 43 | 
17 | Cc1ccc(C2CCc3cc(C)ccc3O2)cc1 (stereo not drawn) [4',6-dimethyl-, 4',6-Dimethylflavan] | 42 | 

Row | Compound | EC50 (rhinovirus serotype 1B; [3]) [nM] | other results
18 | Clc1ccc(C2CCc3ccc(Cl)cc3O2)cc1 (stereo not drawn) [4',7-dichloro-, 4',7-Dichloroflavan] | 48 | 
19 | CN(C)c1ccc(C2CCc3ccccc3O2)cc1 (stereo not drawn) [4'-N,N--dimethylamino-, 4'-(N,N-dimethylamino)flavan] | 265 | 
20 | CC(=O)Oc1ccc(C2CCc3ccccc3O2)cc1 (stereo not drawn) [4'-acetoxyl-] | 67 | 
21 | Nc1ccc(C2CCc3ccccc3O2)cc1 (stereo not drawn) [4'-amino-, 4'-aminoflavan] | 50 | 
22 | Clc1ccc2c(c1)CCC(c1ccc(Br)cc1)O2 (stereo not drawn) [4'-bromo-6-chloro, 4'-bromo-6-chloro-flavan] | 21 | 
23 | Fc1ccc2c(c1)CCC(c1ccc(Br)cc1)O2 (stereo not drawn) [4'-bromo-6-fluoro-, 6-fluoro-4'-bromoflavan] | 13 | activity in tests (rhinoviruses [1]): highest activity in tests
24 | Brc1ccc(C2CCc3cc(I)ccc3O2)cc1 (stereo not drawn) [4'-bromo-6-iodo] | 76 | 
25 | Brc1ccc(C2CCc3ccccc3O2)cc1 (stereo not drawn) [4'-bromo-, 4'-Bromoflavan] | 36 | 
26 | N#Cc1ccc2c(c1)CCC(c1ccc(Cl)cc1)O2 (stereo not drawn) [4'-chloro-6-cyano, 6-cyano-4'-chloroflavan] | 6 | activity in tests (rhinoviruses [1]): highest activity in tests
27 | CCc1ccc2c(c1)CCC(c1ccc(Cl)cc1)O2 (stereo not drawn) [4'-chloro-6-ethyl-, 4'-chloro-6-ethyl-flavan] | 52 | 
28 | Fc1ccc2c(c1)CCC(c1ccc(Cl)cc1)O2 (stereo not drawn) [4'-chloro-6-fluoro-, 6-fluoro-4'-chloroflavan] | 15 | activity in tests (rhinoviruses [1]): highest activity in tests
29 | Clc1ccc(C2CCc3cc(I)ccc3O2)cc1 (stereo not drawn) [4'-chloro-6-iodo-, 6-iodo-4'-chloroflavan] | 15 | activity in tests (rhinoviruses [1]): highest activity in tests
30 | Cc1ccc2c(c1)OC(c1ccc(Cl)cc1)CC2 (stereo not drawn) [4'-chloro-7-methyl-, 4'-chloro-7-methyl-flavan] | 15.5 | activity in tests (rhinoviruses [1]): highest activity in tests
31 | Clc1ccc(C2CCc3ccccc3O2)cc1 (stereo not drawn) [4'-chloro-, 4'-chloroflavan] |  | EC50 (rhinovirus serotype 1B; read-out: ED50): 40 nM
32 | Fc1ccc(C2CCc3cc(I)ccc3O2)cc1 (stereo not drawn) [4'-fluoro-6-iodo, 6-iodo-4'-fluoro] | 28 | 
33 | OC1Cc2ccccc2OC1c1ccccc1 (stereo not drawn) [-3-hydroxy flavan] |  | effect against viral hepatitis (viral hepatitis): without success

Now from value to compound, other results behind:

Row | EC50 (rhinovirus serotype 1B; [3]) [nM] | Compound | other results
34 | 17.5 | Fc1ccc(C2CCc3ccccc3O2)cc1 (stereo not drawn) [4'-fluoro-, 4'-flouroflavan] | activity in tests (rhinoviruses [1]): highest activity in tests
35 | 60 | Oc1ccc(C2CCc3ccccc3O2)cc1 (stereo not drawn) [4'-hydroxy-, 4'-hydroxyflavan] | 
36 | 13 | COc1ccc(C2CCc3cc(Cl)ccc3O2)cc1 (stereo not drawn) [4'-methoxyl-6-chloro-, 6-Chloro-4'-methoxy-flavan] | activity in tests (rhinoviruses [1]): highest activity in tests
37 | 100 | COc1ccc(C2CCc3cc(C)ccc3O2)cc1 (stereo not drawn) [4'-methoxyl-6-methyl-, 4'-Methoxy-6-methyl-flavan] | 
38 | 70 | COc1ccc(C2CCc3ccccc3O2)cc1 (stereo not drawn) [4'-methoxyl-, 4'-methoxyflavan] | 
39 | 2.3 | Cc1ccc(C2CCc3cc(Cl)ccc3O2)cc1 (stereo not drawn) [4'-methyl-6-chloro-, 6-Chloro-4'-methyl-flavan] | activity in tests (rhinoviruses [1]): highest activity in tests
40 | 83 | Cc1ccc(C2CCc3ccc(Cl)cc3O2)cc1 (stereo not drawn) [4'-methyl-7-chloro-, 7-Chloro-4'-methyl-flavan] | 
41 | 12.5 | Cc1ccc(C2CCc3ccccc3O2)cc1 (stereo not drawn) [4'-methyl-, 4'-methylflavan] | activity in tests (rhinoviruses [1]): highest activity in tests
42 | 5 | Clc1ccc(C2CCc3cc(Br)ccc3O2)cc1 (stereo not drawn) [6-bromo-4'-chloro-, 6-bromo-4'-chloro-flavan] | 
43 | 29 | Fc1ccc(C2CCc3cc(Br)ccc3O2)cc1 (stereo not drawn) [6-bromo-4'-fluoro] | 
44 | 21 | Brc1ccc2c(c1)CCC(c1ccc(I)cc1)O2 (stereo not drawn) [6-bromo-4'-iodo-, 6-bromo-4'-iodo] | 
45 | 18 | Cc1ccc(C2CCc3cc(Br)ccc3O2)cc1 (stereo not drawn) [6-bromo-4'-methyl-, 6-bromo-4'-methylflavan] | 
46 | 16 | Fc1ccc(C2CCc3cc(Cl)ccc3O2)cc1 (stereo not drawn) [6-chloro-4'-fluoro, 6-chloro-4'-fluoro-flavan] | activity in tests (rhinoviruses [1]): highest activity in tests
47 | 36 | CC(C)c1ccc(C2CCc3cc(Cl)ccc3O2)cc1 (stereo not drawn) [6-chloro-4-(1-methylethyl), 6-chloro 4'-isopropylflavan] | 
48 | 19 | Brc1ccc2c(c1)CCC(c1ccccc1)O2 (stereo not drawn) [Example 6-bromo-, 6-bromo flavan] | 
49 | 50 | Clc1ccc2c(c1)CCC(c1ccccc1)O2 (stereo not drawn) [Example 6-chloro-, 6-chloroflavan] | 
50 | 38 | N#Cc1ccc2c(c1)CCC(c1ccccc1)O2 (stereo not drawn) [Example 6-cyano-, 6-cyano] | 
51 | 20 | Fc1ccc2c(c1)CCC(c1ccccc1)O2 (stereo not drawn) [Example 6-fluoro-, 6-fluoro flavan] | 
52 | 58 | Ic1ccc2c(c1)CCC(c1ccccc1)O2 (stereo not drawn) [Example 6-iodo-, 6-iodo] | 
53 | 12.5 | COc1ccc2c(c1)CCC(c1ccccc1)O2 (stereo not drawn) [Example 6-methoxyl-, 6-methoxyflavan] | activity in tests (rhinoviruses [1]): highest activity in tests
54 | 150 | Cc1ccc2c(c1)CCC(c1ccccc1)O2 (stereo not drawn) [Example 6-methyl-, 6-methylflavan] | 
55 | 70 | Clc1ccc2c(c1)OC(c1ccccc1)CC2 (stereo not drawn) [Example 7-chloro-, 7-Chloroflavan] | 
56 | 46 | c1ccc(C2CCc3ccccc3O2)cc1 (stereo not drawn) [flavan, Flavan] | activity against rhinoviruses (rhinoviruses [2]): quite good activity against rhinoviruses
